The source of these data is article PMC5218480 (PLoS ONE, 2017).

This assay deals with MV-4-11 cells. Nature of the assay: Gene expression microarray analysis (Affymetrix PrimeView) and GSEA. In kind it is cell-based, human. The arrangement: RFU PODN (11730768_x_at) / Fold change /veh PODN (11730768_x_at) / RFU LINC00158 (11744669_a_at) / Fold change /veh LINC00158 (11744669_a_at) / RFU DUSP10 (11751237_a_at) / Fold change /veh DUSP10 (11751237_a_at) / RFU ID3 (11757404_x_at) / Fold change /veh ID3 (11757404_x_at) / RFU PLEKHG5 (11737974_s_at) / Fold change /veh PLEKHG5 (11737974_s_at) / RFU LRRC4B (11730491_at) / Fold change /veh LRRC4B (11730491_at) / RFU GIMAP4 (11747438_a_at) / Fold change /veh GIMAP4 (11747438_a_at) / RFU KRT8 (11758183_x_at) / Fold change /veh KRT8 (11758183_x_at) / RFU CNN1 (11734310_a_at) / Fold change /veh CNN1 (11734310_a_at) / RFU VPS37D (11726825_at) / Fold change /veh VPS37D (11726825_at) / RFU C10orf10 (11716522_x_at) / Fold change /veh C10orf10 (11716522_x_at) / RFU KIR2DL2 /// KIR2DL4 /// KIR2DL5A /// KIR2DL5B /// KIR2DS1 /// KIR2DS2 /// KIR2DS3 /// KIR2DS4 /// KIR3DL3 /// KIR3DL3 /// KIR3DS1 (11738374_at) / Fold change /veh KIR2DL2 /// KIR2DL4 /// KIR2DL5A /// KIR2DL5B /// KIR2DS1 /// KIR2DS2 /// KIR2DS3 /// KIR2DS4 /// KIR3DL3 /// KIR3DL3 /// KIR3DS1 (11738374_at) / RFU C1QL1 (11718748_at) / Fold change /veh C1QL1 (11718748_at) / RFU TMPRSS4 (11747572_a_at) / Fold change /veh TMPRSS4 (11747572_a_at) / RFU HAMP (11756126_x_at) / Fold change /veh HAMP (11756126_x_at) / RFU RNFT2 (11725882_a_at) / Fold change /veh RNFT2 (11725882_a_at) / RFU NR4A2 (11747474_a_at) / Fold change /veh NR4A2 (11747474_a_at) / RFU ABCC12 (11746883_a_at) / Fold change /veh ABCC12 (11746883_a_at) / RFU TMEM136 (11760407_x_at) / Fold change /veh TMEM136 (11760407_x_at) / RFU CLDN22 /// WWC2 (11732394_at) / Fold change /veh CLDN22 /// WWC2 (11732394_at) / RFU HLA-DPB1 (11760878_x_at) / Fold change /veh HLA-DPB1 (11760878_x_at) / RFU SPINT1 (11716480_a_at) / Fold change /veh SPINT1 (11716480_a_at) / RFU GAP43 (11754022_s_at) / Fold change /veh GAP43 (11754022_s_at) / RFU A4GNT (11735810_at) / Fold change /veh A4GNT (11735810_at) / RFU PRB3 (11715151_x_at) / Fold change /veh PRB3 (11715151_x_at) / RFU TUBB4B (11761932_at) / Fold change /veh TUBB4B (11761932_at) / RFU CAPN14 (11732068_a_at) / Fold change /veh CAPN14 (11732068_a_at) / RFU TMCC2 (11721928_a_at) / Fold change /veh TMCC2 (11721928_a_at) / RFU IRGQ (11745062_a_at) / Fold change /veh IRGQ (11745062_a_at) / RFU FAM174B (11720279_a_at) / Fold change /veh FAM174B (11720279_a_at) / RFU TMPRSS4 (11748680_a_at) / Fold change /veh TMPRSS4 (11748680_a_at) / RFU FAM212B (11763350_a_at) / Fold change /veh FAM212B (11763350_a_at) / RFU PLEKHG5 (11743358_a_at) / Fold change /veh PLEKHG5 (11743358_a_at) / RFU ZSCAN30 (11745921_a_at) / Fold change /veh ZSCAN30 (11745921_a_at) / RFU CMKLR1 (11741424_a_at) / Fold change /veh CMKLR1 (11741424_a_at) / RFU LOC101060620 /// MAPK8IP1 (11723275_at) / Fold change /veh LOC101060620 /// MAPK8IP1 (11723275_at) / RFU SPTSSB (11747773_x_at) / Fold change /veh SPTSSB (11747773_x_at) / RFU PRSS12 (11739890_at) / Fold change /veh PRSS12 (11739890_at) / RFU BIN1 (11741810_x_at) / Fold change /veh BIN1 (11741810_x_at) / RFU WNT11 (11732464_a_at) / Fold change /veh WNT11 (11732464_a_at) / RFU C10orf10 (11716521_a_at) / Fold change /veh C10orf10 (11716521_a_at) / RFU C5orf56 (11738089_at) / Fold change /veh C5orf56 (11738089_at) / RFU CYB561 (11721691_x_at) / Fold change /veh CYB561 (11721691_x_at) / RFU ANKRD19P (11752326_a_at) / Fold change /veh ANKRD19P (11752326_a_at) / RFU OR2T12 /// OR2T33 /// OR2T8 (11738714_s_at) / Fold change /veh OR2T12 /// OR2T33 /// OR2T8 (11738714_s_at) / RFU VCAN (11748164_a_at) / Fold change /veh VCAN (11748164_a_at) / RFU JSRP1 (11732532_at) / Fold change /veh JSRP1 (11732532_at) / RFU KRTAP10-11 (11738290_x_at) / Fold change /veh KRTAP10-11 (11738290_x_at) / RFU MYO3A (11730013_a_at) / Fold change /veh MYO3A (11730013_a_at) / RFU EBF3 (11725865_a_at) / Fold change /veh EBF3 (11725865_a_at) / RFU CAMK2N1 (11719241_x_at) / Fold change /veh CAMK2N1 (11719241_x_at) / RFU C5orf56 (11738088_a_at) / Fold change /veh C5orf56 (11738088_a_at) / RFU OLFML3 (11715873_a_at) / Fold change /veh OLFML3 (11715873_a_at) / RFU LOC100653217 /// NTM (11731650_a_at) / Fold change /veh LOC100653217 /// NTM (11731650_a_at) / RFU MAPK11 (11762145_a_at) / Fold change /veh MAPK11 (11762145_a_at) / RFU FIZ1 (11724087_x_at) / Fold change /veh FIZ1 (11724087_x_at) / RFU OASL (11726364_x_at) / Fold change /veh OASL (11726364_x_at) / RFU SOX15 (11748057_x_at) / Fold change /veh SOX15 (11748057_x_at) / RFU CD79A (11719716_a_at) / Fold change /veh CD79A (11719716_a_at) / RFU HIST1H1D (11736915_at) / Fold change /veh HIST1H1D (11736915_at) / RFU CASKIN2 (11723855_a_at) / Fold change /veh CASKIN2 (11723855_a_at) / RFU LOC730098 (11760151_x_at) / Fold change /veh LOC730098 (11760151_x_at) / RFU OR4N2 (11742367_at) / Fold change /veh OR4N2 (11742367_at) / RFU PRRT2 (11749266_a_at) / Fold change /veh PRRT2 (11749266_a_at) / RFU SNX32 (11753110_a_at) / Fold change /veh SNX32 (11753110_a_at) / RFU CDHR5 (11726645_a_at) / Fold change /veh CDHR5 (11726645_a_at) / RFU RCAN1 (11760418_a_at) / Fold change /veh RCAN1 (11760418_a_at) / RFU FAM167A (11723789_a_at) / Fold change /veh FAM167A (11723789_a_at) / RFU FAM26E (11764081_at) / Fold change /veh FAM26E (11764081_at) / RFU ISYNA1 (11749810_s_at) / Fold change /veh ISYNA1 (11749810_s_at) / RFU ACY1 (11761880_at) / Fold change /veh ACY1 (11761880_at) / RFU 11764098_at / Fold change /veh 11764098_at / RFU SAMD14 (11745864_x_at) / Fold change /veh SAMD14 (11745864_x_at) / RFU NPB (11741838_a_at) / Fold change /veh NPB (11741838_a_at) / RFU TMPRSS6 (11731388_a_at) / Fold change /veh TMPRSS6 (11731388_a_at) / RFU KRTAP10-2 (11738614_at) / Fold change /veh KRTAP10-2 (11738614_at) / RFU ARHGAP8 /// PRR5-ARHGAP8 (11727945_x_at) / Fold change /veh ARHGAP8 /// PRR5-ARHGAP8 (11727945_x_at) / RFU KRTAP5-7 /// NADSYN1 (11734609_at) / Fold change /veh KRTAP5-7 /// NADSYN1 (11734609_at) / RFU RASL12 (11751679_a_at) / Fold change /veh RASL12 (11751679_a_at) / RFU CDKN2B (11736163_a_at) / Fold change /veh CDKN2B (11736163_a_at) / RFU PRF1 (11729649_at) / Fold change /veh PRF1 (11729649_at) / RFU, ZNF638 /// ZNF638-IT1 / Fold change vs veh, ZNF638 /// ZNF638-IT1 / RFU, PANK3 / Fold change vs veh, PANK3 / RFU, SH3YL1 / Fold change vs veh, SH3YL1 / RFU, ZEB2 / Fold change vs veh, ZEB2 / RFU, NRIP1 / Fold change vs veh, NRIP1 / RFU, PTTG1IP / Fold change vs veh, PTTG1IP / RFU, CAPN2 / Fold change vs veh, CAPN2 / RFU, MED14 / Fold change vs veh, MED14 / RFU, SNORA58 / Fold change vs veh, SNORA58 / RFU, C1orf63 / Fold change vs veh, C1orf63 / RFU, LRRFIP1 / Fold change vs veh, LRRFIP1 / RFU, NDUFAF7 / Fold change vs veh, NDUFAF7 / RFU, SLC12A2 / Fold change vs veh, SLC12A2 / RFU, IBTK / Fold change vs veh, IBTK / RFU, ESF1 / Fold change vs veh, ESF1 / Fold change vs veh, TMEM50B / RFU, TAOK1 / Fold change vs veh, TAOK1 / RFU, ACBD3 / Fold change vs veh, ACBD3 / RFU, TMA16 / Fold change vs veh, TMA16 / RFU, RWDD3 / Fold change vs veh, RWDD3 / RFU, BCAT1 / Fold change vs veh, BCAT1 / RFU, EDEM3 / Fold change vs veh, EDEM3 / RFU, TMEM33 / Fold change vs veh, TMEM33 / RFU, WDR75 / Fold change vs veh, WDR75 / RFU, AHCTF1 / Fold change vs veh, AHCTF1 / RFU, TFRC / Fold change vs veh, TFRC / RFU, ZDHHC17 / Fold change vs veh, ZDHHC17 / RFU, NOM1 / Fold change vs veh, NOM1 / RFU, ARL8B / Fold change vs veh, ARL8B / RFU, ZBTB11 / Fold change vs veh, ZBTB11 / RFU, TAMM41 / Fold change vs veh, TAMM41 / RFU, KIAA1704 /// LOC100996395 / Fold change vs veh, KIAA1704 /// LOC100996395 / RFU, ING1 / Fold change vs veh, ING1 / RFU, TRMT61B / Fold change vs veh, TRMT61B / RFU, FUBP3 / Fold change vs veh, FUBP3 / RFU, TP53 / Fold change vs veh, TP53 / RFU, TNKS2 / Fold change vs veh, TNKS2 / RFU, ZFP14 / Fold change vs veh, ZFP14 / RFU, ACTR2 / Fold change vs veh, ACTR2 / RFU, PPP3R1 / Fold change vs veh, PPP3R1 / RFU, PIK3R1 / Fold change vs veh, PIK3R1 / RFU, HNRNPA1 / Fold change vs veh, HNRNPA1 / RFU, RNF170 / Fold change vs veh, RNF170 / RFU, ZNF28 / Fold change vs veh, ZNF28 / RFU, RNGTT / Fold change vs veh, RNGTT / RFU, OGT / Fold change vs veh, OGT / RFU, BRD1 / Fold change vs veh, BRD1 / RFU, MARS / Fold change vs veh, MARS / RFU, ZNF655 / Fold change vs veh, ZNF655 / RFU, FAHD1 / Fold change vs veh, FAHD1 / RFU, BDP1 / Fold change vs veh, BDP1 / RFU, LRRCC1 / Fold change vs veh, LRRCC1 / RFU, ARID1A / Fold change vs veh, ARID1A / RFU, ZNF146 / Fold change vs veh, ZNF146 / RFU, ZNF330 / Fold change vs veh, ZNF330 / RFU, GPN3 / Fold change vs veh, GPN3 / RFU, C9orf123 / Fold change vs veh, C9orf123 / RFU, N4BP2L2 / Fold change vs veh, N4BP2L2 / RFU, ARFIP1 / Fold change vs veh, ARFIP1 / RFU, FAM179B / Fold change vs veh, FAM179B / RFU, BCL10 / Fold change vs veh, BCL10 / RFU, UHRF1BP1L / Fold change vs veh, UHRF1BP1L / RFU, BET1 / Fold change vs veh, BET1 / RFU, CNOT2 / Fold change vs veh, CNOT2 / RFU, ZNF268 / Fold change vs veh, ZNF268 / Fold change vs veh, ZNF507 / RFU, DGCR2 / Fold change vs veh, DGCR2 / RFU, WDSUB1 / Fold change vs veh, WDSUB1 / Fold change vs veh, HSP90B1 /// MIR3652 / RFU, ADSS / Fold change vs veh, ADSS / RFU, GK / Fold change vs veh, GK / RFU, ZNF148 / Fold change vs veh, ZNF148 / RFU, TAF9 / Fold change vs veh, TAF9 / RFU, SLC1A5 / Fold change vs veh, SLC1A5 / RFU, SLMO2 / Fold change vs veh, SLMO2 / RFU, ABCC4 / Fold change vs veh, ABCC4 / RFU, LOC101060439 /// RAP1B / Fold change vs veh, LOC101060439 /// RAP1B / RFU, RFX7 / Fold change vs veh, RFX7 / RFU, GTPBP10 / Fold change vs veh, GTPBP10 / RFU, CNEP1R1 / Fold change vs veh, CNEP1R1 / RFU, BIVM-ERCC5 /// ERCC5 / Fold change vs veh, BIVM-ERCC5 /// ERCC5 / RFU, ILF3 / Fold change vs veh, ILF3 / RFU 11762660_at / Fold change /veh 11762660_at / RFU VCAN (11757783_s_at) / Fold change /veh VCAN (11757783_s_at) / RFU DDX43 (11728927_at) / Fold change /veh DDX43 (11728927_at) / RFU KRT8 (11758188_x_at) / Fold change /veh KRT8 (11758188_x_at) / RFU NKD1 (11759106_at) / Fold change /veh NKD1 (11759106_at) / RFU SRD5A1 (11742802_a_at) / Fold change /veh SRD5A1 (11742802_a_at) / RFU TPSAB1 /// TPSB2 (11721975_s_at) / Fold change /veh TPSAB1 /// TPSB2 (11721975_s_at) / RFU GSTM3 (11746129_a_at) / Fold change /veh GSTM3 (11746129_a_at) / RFU IL23R (11737362_x_at) / Fold change /veh IL23R (11737362_x_at) / RFU TMEM51 (11727254_a_at) / Fold change /veh TMEM51 (11727254_a_at) / RFU PIWIL2 (11732686_x_at) / Fold change /veh PIWIL2 (11732686_x_at) / RFU ORM1 (11744905_x_at) / Fold change /veh ORM1 (11744905_x_at) / RFU CCDC152 (11743942_at) / Fold change /veh CCDC152 (11743942_at) / RFU ECM1 (11717891_a_at) / Fold change /veh ECM1 (11717891_a_at) / RFU IL23R (11748794_a_at) / Fold change /veh IL23R (11748794_a_at) / RFU TNFAIP8L3 (11732012_x_at) / Fold change /veh TNFAIP8L3 (11732012_x_at) / RFU MBOAT4 (11741988_at) / Fold change /veh MBOAT4 (11741988_at) / RFU 11764193_at / Fold change /veh 11764193_at / RFU TMEM53 (11763286_at) / Fold change /veh TMEM53 (11763286_at) / RFU MAGEB2 (11727129_at) / Fold change /veh MAGEB2 (11727129_at) / RFU TMEM200A (11744735_a_at) / Fold change /veh TMEM200A (11744735_a_at) / RFU CCDC152 (11751479_a_at) / Fold change /veh CCDC152 (11751479_a_at) / RFU FAM211A (11726209_a_at) / Fold change /veh FAM211A (11726209_a_at) / RFU RGS16 (11746705_a_at) / Fold change /veh RGS16 (11746705_a_at) / RFU VCAN (11755009_s_at) / Fold change /veh VCAN (11755009_s_at) / RFU RHOB (11743442_s_at) / Fold change /veh RHOB (11743442_s_at) / RFU RGS16 (11720943_a_at) / Fold change /veh RGS16 (11720943_a_at) / RFU RGS16 (11720944_at) / Fold change /veh RGS16 (11720944_at) / RFU, VPS4B / Fold change vs veh, VPS4B / RFU, CREB1 / Fold change vs veh, CREB1 / RFU, DNAJC13 / Fold change vs veh, DNAJC13 / RFU, GNAQ / Fold change vs veh, GNAQ / RFU, CDK5R1 / Fold change vs veh, CDK5R1 / RFU, ZRANB3 / Fold change vs veh, ZRANB3 / RFU, CUL4A / Fold change vs veh, CUL4A / RFU, CCNY / Fold change vs veh, CCNY / RFU, UFL1 / Fold change vs veh, UFL1 / RFU, COG3 / Fold change vs veh, COG3 / RFU, DIAPH2 / Fold change vs veh, DIAPH2 / RFU, SKA2 / Fold change vs veh, SKA2 / RFU, AFF3 / Fold change vs veh, AFF3 / RFU, LMF1 / Fold change vs veh, LMF1 / RFU, IPO11 / Fold change vs veh, IPO11 / RFU, DFFB / Fold change vs veh, DFFB / RFU, FOXP1 / Fold change vs veh, FOXP1 / RFU, CARD8 / Fold change vs veh, CARD8 / RFU, STRN3 / Fold change vs veh, STRN3 / RFU, ADK / Fold change vs veh, ADK / RFU, RASSF2 / Fold change vs veh, RASSF2 / RFU, WIPF1 / Fold change vs veh, WIPF1 / RFU, LARP1B / Fold change vs veh, LARP1B / RFU, RASA1 / Fold change vs veh, RASA1 / RFU, RB1 / Fold change vs veh, RB1 / RFU, PPFIA1 / Fold change vs veh, PPFIA1 / RFU, MAT2A / Fold change vs veh, MAT2A / RFU, CCT5 / Fold change vs veh, CCT5 / RFU, WDR92 / Fold change vs veh, WDR92 / RFU, CUX1 / Fold change vs veh, CUX1 / RFU, TTC7A / Fold change vs veh, TTC7A / RFU, TMEM135 / Fold change vs veh, TMEM135 / RFU, DEPTOR / Fold change vs veh, DEPTOR / RFU, CPM / Fold change vs veh, CPM / RFU, DNAJB6 / Fold change vs veh, DNAJB6 / RFU, CACNA2D3 / Fold change vs veh, CACNA2D3 / RFU, DTX4 / Fold change vs veh, DTX4 / RFU, TFCP2 / Fold change vs veh, TFCP2 / RFU, GMCL1 /// GMCL1P1 / Fold change vs veh, GMCL1 /// GMCL1P1 / RFU, AEBP2 / Fold change vs veh, AEBP2 / RFU, SNHG1 /// SNORD22 /// SNORD25 /// SNORD26 /// SNORD27 /// SNORD28 /// SNORD29 /// SNORD31 / Fold change vs veh, SNHG1 /// SNORD22 /// SNORD25 /// SNORD26 /// SNORD27 /// SNORD28 /// SNORD29 /// SNORD31 / Fold change (Aza/veh), C12orf56 (ProbeSet 11735607_a_at) / Fold change (ACY-1035/veh), C12orf56 (ProbeSet 11735607_a_at) / Fold change (Aza/veh), FGFR1OP (ProbeSet 11751329_s_at) / Fold change (ACY-1035/veh), FGFR1OP (ProbeSet 11751329_s_at) / Fold change (Aza/veh), VPS36 (ProbeSet 11739960_a_at) / Fold change (ACY-1035/veh), VPS36 (ProbeSet 11739960_a_at) / RFU SYPL1 (11715823_x_at) / Fold change /veh SYPL1 (11715823_x_at) / RFU IGFBP7 (11715501_s_at) / Fold change /veh IGFBP7 (11715501_s_at) / RFU REEP3 (11722064_at) / Fold change /veh REEP3 (11722064_at) / RFU IGLL1 (11728026_x_at) / Fold change /veh IGLL1 (11728026_x_at): dose or concentration left out as unconfirmed. Conditions: MV-4-11 cells, 48 hours.

Consider `Nc1ccc(-c2cccs2)cc1NC(=O)c1ccc2c(c1)cc(C1CC1)n2CCN1CCOCC1` [ACY-1035], for which the “Fold change /veh CASKIN2 (11723855_a_at)” value is 1.05.
